Reference: patent publication US7901692B2, “Nontypeable Haemophilus influenzae virulence factors” (Nationalwide Children's Hospital, Inc., priority 2003, dated 2011)

Experiments:
[1] = system: NTHi parent strain 86-028NP; test: Broth minimal inhibitory concentration (MIC) analysis for protamine; assay type: cell-based, nontypeable Haemophilus influenzae; settings: aerobic growth in sBHI broth
Method: (§1) Since the sap mutants of S. typhimurium and E. chrysanthemi were reported to be hypersensitive to certain antimicrobial peptides, sensitivity to several commercial available cationic peptides against the NTHi parent and the sapF mutant strains was analyzed. […] Broth minimal inhibitory concentration (MIC) analyses for protamine determined that the MIC of protamine for the sapF::mTn5 mutants was lower than that for the parent strain (0.2 mg/ml versus 0.4 mg/ml). […] Thus, the sapF gene product is not required for growth in enriched media, and the lack of growth of the sapF mutants at the lower protamine concentrations in sBHI broth was not due to a growth defect. Therefore, the sapF mutation may be responsible for the phenotype of increased sensitivity to protamine, and the in vivo attenuation property of the sapF mutant.

NTHi sapF::mTn5 mutants = test: as above; assay type: cell-based, nontypeable Haemophilus influenzae
Text: To ensure no secondary mutation in the original sapF::mTn5 mutant contributed to the various phenotypes of this mutant, the parent strain 86-028NP was transformed with the 6 kb EcoRV fragment containing the sapF::mTn5 allele from the pBlueA1 plasmid. The wild type sapF gene was replaced in this strain by homologous recombination with the sapF::mTn5 allele. One Km resistant clone was confirmed to harbor a miniTn5 interrupted sapF gene by PCR and Southern blot analysis. This clone was further characterized together with the sapF::mTn5 strain and designated RcsapF::mTn5.
as §1

protamine
MIC of protamine [1]: 400 µg/mL
sensitivity of mutant to the action of protamine (NTHi sapF::mTn5 mutants; sapF::mTn5 mutant, more sensitive (relative to parent strain)): 3 fold
MIC of protamine (NTHi sapF::mTn5 mutants; sapF::mTn5 mutants, aerobic growth in sBHI broth): 200 µg/mL
